Test results from patent publication US20260027122A1, “USE OF IMIDAZOLINONE DERIVATIVE IN COMBINATION WITH RADIOTHERAPY IN TREATMENT OF TUMORS” (CHENGDU BAIYU PHARMACEUTICAL CO., LTD., priority 2022, published 2026).
Marks after values point to notes of the source that are not given here.

Tests used:
[1] = BALB/c mouse model bearing CT26 transplanted tumor: body weight of mice; assay type: in vivo; conditions: for Body weight: Compound A 20 mpk once a day + IR 2 Gy for 5 consecutive days, in g (unit assumed)
From the text: (§1) Female BALB/c mice were selected to constitute a CT26 subcutaneous transplanted tumor model by subcutaneous injection of tumor cells. When the mean tumor volume reached 150-200 mm^3, mice were divided into 3 experimental groups: Vehicle, IR, and (Compound A (20 mpk)+IR), respectively, with 8 animals per group and 24 animals in total for grouping experiments. Each irradiated group was given an irradiation dose of 2 Gy for 5 consecutive days, the administration group was given the corresponding drug once a day for 39 consecutive days, and the Vehicle group was given a vehicle.
2.2 Body weight of mice: mice were weighed at least twice a week during a drug treatment cycle.

CT26 transplanted tumor = assay: Inhibition experiment using BALB/c mouse model bearing CT26 transplanted tumor: tumor volume; assay type: in vivo, BALB/c mice; conditions: for Tumor volume (Mean ± SEM): Compound A 20 mpk once a day + IR 2 Gy for 5 consecutive days
From the text: as §1
2.1 Tumor volume: during a drug treatment cycle, the long diameter (a) and short diameter (b) of tumor tissue were measured using an electronic vernier caliper to calculate the volume of the tumor (tumor volume=0.5×a×b^2).

[2] = compound A in combination with IR

CCn1c(=O)n(C2CCOCC2)c2nc(Nc3cc(F)c(C(N)=O)cc3C)ncc21 [Compound A]
Body weight ([1]; D0): 16.8 ± 0.3
Body weight ([1]; D4): 17.1 ± 0.3
Body weight ([1]; D7): 16.0 ± 0.2
Body weight ([1]; D11): 17.6 ± 0.2
Body weight ([1]; D14): 17.9 ± 0.2
Body weight ([1]; D18): 18.6 ± 0.2
Body weight ([1]; D21): 19.1 ± 0.2
Body weight ([1]; D25): 19.4 ± 0.3
Body weight ([1]; D28): 19.7 ± 0.2
Body weight ([1]; D32): 19.9 ± 0.4
Body weight ([1]; D35): 20.1 ± 0.3
Body weight ([1]; D39): 19.6 ± 0.3
Tolerance of the animals ([1]; compound A in combination with radiotherapy): good tolerance
Effect on body weight gain of animals ([1]; compound A in combination with radiotherapy, to D39): no effect on body weight gain
Tumor volume (Mean ± SEM) (CT26 transplanted tumor; D0 (day of grouping)): 168 ± 22 mm^3
Tumor volume (Mean ± SEM) (CT26 transplanted tumor; D4): 260 ± 41 mm^3
Tumor volume (Mean ± SEM) (CT26 transplanted tumor; D7): 284 ± 47* mm^3
Tumor volume (Mean ± SEM) (CT26 transplanted tumor; D11): 253 ± 56*** mm^3
Tumor volume (Mean ± SEM) (CT26 transplanted tumor; D14): 155 ± 28*** mm^3
Tumor volume (Mean ± SEM) (CT26 transplanted tumor; D18): 101 ± 33***# mm^3
Tumor volume (Mean ± SEM) (CT26 transplanted tumor; D21): 93 ± 34# mm^3
Tumor volume (Mean ± SEM) (CT26 transplanted tumor; D25): 169 ± 71# mm^3
Tumor volume (Mean ± SEM) (CT26 transplanted tumor; D28): 288 ± 105# mm^3
Tumor volume (Mean ± SEM) (CT26 transplanted tumor; D32): 462 ± 148# mm^3
Tumor volume (Mean ± SEM) (CT26 transplanted tumor; D35): 605 ± 189# mm^3
Tumor volume (Mean ± SEM) (CT26 transplanted tumor; D39): 828 ± 247# mm^3
Effect on the anti-tumor efficacy of radiotherapy (CT26 transplanted tumor; [2]): significantly enhance the anti-tumor efficacy of radiotherapy
Tumor volume compared to the Vehicle and IR groups (CT26 transplanted tumor; [2]): significantly reduced
